Experimental data as given in patent US11629171B2, “Beta-hairpin peptidomimetics” (POLYPHOR AG, priority 2017, dated 2023).
≈ marks a conversion by molar mass, not a printed value. Where a SMILES comes first, the peptide text is derived from it. Bridges are numbered along the chain shown (N, C = ends). Roman numbers before positions name the chains, in order. [ ]: non-standard residue; d: D form. The star is where a group is joined. Tle = CC(C)(C)[C@H](N)C(=O)O; Hiv = CC(C)[C@H](O)C(=O)O; dDab = NCC[C@@H](N)C(=O)O; Orn = NCCC[C@H](N)C(=O)O; Dab = NCC[C@H](N)C(=O)O; Abu = CC[C@H](N)C(=O)O; Dap = NC[C@H](N)C(=O)O; NHCH2CH2OH = OCCN*

Experiments:
Type in all cases: cell-based
Escherichia coli 926415 = details: 926415
Procedure, shortened: (§1)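 Standard CLSI microdilution testing: bacterial suspensions standardized against 0.5 McFarland to about 10^6 CFU/mL in MH-II broth meet serially halved peptide concentrations in broth containing 0.002% polysorbate 80; incubation lasts 18-20 h at 35° C before the MIC is scored.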

[1] = system: Enterobacter cloacae 848840; details: 848840
Procedure, shortened: as §1

[2] = system: Klebsiella pneumoniae 968733; details: 968733
Procedure, shortened: as §1

[3] = system: Pseudomonas aeruginosa ATCC 27853; details: ATCC 27853
Procedure, shortened: as §1

[4] = system: Acinetobacter baumannii 872842; details: 872842
Procedure, shortened: as §1

[5] = system: Escherichia coli ATCC 25922; details: ATCC 25922
Procedure, shortened: as §1

[6] = system: Klebsiella pneumoniae SSI #3010; details: SSI #3010
Procedure, shortened: as §1

[7] = system: Acinetobacter baumannii DSM 30008; details: DSM 30008
Procedure, shortened: as §1

[8] = system: human red blood cells (hRBC); experiment: Hemolysis; details: red cells of human, 1 h, 200
Procedure, shortened: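 Read-out is supernatant absorbance at 540 nm, normalised to full lysis by 2% Triton X-100 and zero lysis by PBS with 10% water. Peptides (200 μg/mL) were exposed to 20% v/v washed human erythrocytes at 37° C for 1 h under shaking.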

MIC (Escherichia coli 926415)	MIC [1]	MIC [2]	MIC [3]	MIC [4]	MIC [5]	MIC [6]	MIC [7]	Pseudomonas aeruginosa ATCC 27853 MIC [3]	Escherichia coli ATCC 25922 MIC [5]	Klebsiella pneumoniae SSI #3010 MIC [6]	Acinetobacter baumannii DSM 30008 MIC [7]	Structure (SMILES)	Hemolysis at 200 μg/mL [8]
0.0625 µg/mL (≈ 0.0261 µM)	0.0625 µg/mL (≈ 0.0261 µM)	0.0625 µg/mL (≈ 0.0261 µM)	0.0625 µg/mL (≈ 0.0261 µM)	0.03125 µg/mL (≈ 0.013 µM)	0.03125 µg/mL (≈ 0.013 µM)	0.03125 µg/mL (≈ 0.013 µM)	0.03125 µg/mL (≈ 0.013 µM)					CC[C@@H]1NC(=O)[C@@H](CC(C)C)NC(=O)[C@H](CCN)NC(=O)[C@@H](NC(=O)[C@H](CN)NC(=O)[C@@H](NC(=O)[C@H](CCN)NC(=O)CC[C@@H]2NC(=O)[C@H](CO)NC(=O)[C@H](Cc3ccc(O)cc3)NC(=O)[C@@H](NC(=O)[C@@H](NC(C)=O)C(C)C)CSSC[C@@H](C(=O)N[C@H](C(N)=O)[C@@H](C)O)NC(=O)[C@H](C(C)(C)C)NC(=O)[C@H](CO)NC(=O)[C@H](Cc3c[nH]c4ccccc34)NC(=O)[C@H](CCN)NC(=O)[C@@H](CCN)NC2=O)[C@@H](C)O)CCNC(=O)[C@H]([C@@H](C)O)NC(=O)[C@H](CCN)NC(=O)[C@H](CCN)NC1=O [Ex. 256] (I: Ac-VCYSE[dDab][Dab]WS[Tle]CT-NH2 / II: [Dab]T[Dap][Dab][Dab][dL][Abu][Dab][Dab]T; disulfide I:2-I:11; amide I:5-II:N; lactam II:4-II:C)	1%
0.125 µg/mL (≈ 0.051 µM)	0.125 µg/mL (≈ 0.051 µM)	0.25 µg/mL (≈ 0.102 µM)		0.125 µg/mL (≈ 0.051 µM)				0.125 µg/mL	0.0625 µg/mL	0.125 µg/mL	0.0625 µg/mL	CC(=O)N[C@H](C(=O)N[C@H]1CSSC[C@@H](C(=O)N[C@@H](CO)C(N)=O)NC(=O)[C@H](C(C)C)NC(=O)[C@H](Cc2c[nH]cn2)NC(=O)[C@H](Cc2c[nH]c3ccccc23)NC(=O)[C@H](CO)NC(=O)[C@@H](CCN)NC(=O)[C@H](CCC(=O)N[C@@H](CCN)C(=O)N[C@H](C(=O)N[C@@H](CN)C(=O)N[C@H]2CCNC(=O)[C@H]([C@@H](C)O)NC(=O)[C@H](CCN)NC(=O)[C@H](CCN)NC(=O)[C@H](CC(C)C)NC(=O)[C@@H](CC(C)C)NC(=O)[C@H](CCN)NC2=O)[C@@H](C)O)NC(=O)[C@H](CCN)NC(=O)[C@H](Cc2ccc(O)cc2)NC1=O)C(C)C [Ex. 329] (I: Ac-VCY[Dab]E[dDab]SWHVCS-NH2 / II: [Dab]T[Dap][Dab][Dab][dL]L[Dab][Dab]T; disulfide I:2-I:11; amide I:5-II:N; lactam II:4-II:C)	<1%
0.125 µg/mL (≈ 0.0537 µM)	1 µg/mL (≈ 0.429 µM)	0.25 µg/mL (≈ 0.107 µM)	0.125 µg/mL (≈ 0.0537 µM)	0.25 µg/mL (≈ 0.107 µM)	0.125 µg/mL (≈ 0.0537 µM)	0.125 µg/mL (≈ 0.0537 µM)	0.125 µg/mL (≈ 0.0537 µM)					CC(C)C[C@@H]1NC(=O)[C@@H](CC(C)C)NC(=O)[C@H](CCN)NC(=O)[C@@H](NC(=O)[C@H](CCN)NC(=O)[C@H](CO)NC(=O)[C@H](CCN)NC(=O)CC[C@@H]2NC(=O)[C@H](CN)NC(=O)[C@H](Cc3ccc(O)cc3)NC(=O)[C@@H](NC(=O)[C@@H](O)C(C)C)CSSC[C@@H](C(=O)NCCO)NC(=O)[C@H](C(C)(C)C)NC(=O)[C@H](CO)NC(=O)[C@H](Cc3c[nH]c4ccccc34)NC(=O)[C@H]([C@@H](C)O)NC(=O)[C@@H](CCN)NC2=O)CCNC(=O)[C@H]([C@@H](C)O)NC(=O)[C@H](CCN)NC(=O)[C@H](CCN)NC1=O [Ex. 59] (I: H-[Hiv]CY[Dap]E[dDab]TWS[Tle]C-NHCH2CH2OH / II: [Dab]S[Dab][Dab][Dab][dL]L[Dab][Dab]T; disulfide I:2-I:11; amide I:5-II:N; lactam II:4-II:C)	<1%
0.5 µg/mL (≈ 0.207 µM)	0.125 µg/mL (≈ 0.0518 µM)	0.25 µg/mL (≈ 0.104 µM)		0.0625 µg/mL (≈ 0.0259 µM)				0.125 µg/mL	0.0625 µg/mL	0.0625 µg/mL	0.03125 µg/mL	CC(=O)N[C@H](C(=O)N[C@H]1CSSC[C@@H](C(=O)N[C@@H](CO)C(N)=O)NC(=O)[C@H](C(C)C)NC(=O)[C@H](CO)NC(=O)[C@H](Cc2c[nH]c3ccccc23)NC(=O)[C@H](CCC(=O)N[C@@H](CCN)C(=O)N[C@H](C(=O)N[C@@H](CN)C(=O)N[C@H]2CCNC(=O)[C@H]([C@@H](C)O)NC(=O)[C@H](CCN)NC(=O)[C@H](CCN)NC(=O)[C@H](CC(C)C)NC(=O)[C@@H](CC(C)C)NC(=O)[C@H](CCN)NC2=O)[C@@H](C)O)NC(=O)[C@@H](CCN)NC(=O)[C@H](CCCN)NC(=O)[C@H](CO)NC(=O)[C@H](Cc2ccc(O)cc2)NC1=O)C(C)C [Ex. 354] (I: Ac-VCYS[Orn][dDab]EWSVCS-NH2 / II: [Dab]T[Dap][Dab][Dab][dL]L[Dab][Dab]T; disulfide I:2-I:11; amide I:7-II:N; lactam II:4-II:C)	1%
